Patent publication US8278465B2, “Coumarin derivative having antitumor activity” (Chugai Seiyaku Kabushiki Kaisha, priority 2006, dated 2012)
Like-named read-outs stand apart in the source and are kept apart here.

System: human colon cancer cell line HCT116
Assay: Measurement of cell proliferation inhibitory activity (Cell Counting Kit-8)
Assay type: cell-based
Conditions: HCT116, 4 days incubation, read-out: IC50 (50% proliferation inhibitory concentration)
Procedure: The cell proliferation inhibitory activities of the compounds and salts shown in Tables 1-1, 1-2 and Table 2 were measured as follows, using the human colon cancer cell line HCT116 (American Type Culture Collection, VA, USA). 2000 to 3000 cells per well of the human colon cancer cell line HCT116 was placed in a 96-well culture plate, a predetermined concentration (0.00038 μM, 0.00076 μM, 0.0015 μM, 0.0031 μM, 0.0061 μM, 0.012 μM, 0.024 μM, 0.049 μM, 0.098 μM, 0.195 μM, 0.39 μM, 0.78 μM, 1.56 μM, 3.13 μM, 6.25 μM, 12.5 μM, 25 μM or 50 μM) of the test substance was added thereto, and the mixture was then incubated at 37° C. under 5% CO2 environment for 4 days. On day 4 of incubation, the Cell Counting Kit-8 solution (Dojindo Laboratories) was added, the absorbance (measurement wavelength: 450 nm; reference wavelength: 615 nm) was measured following the protocol attached to the kit, and the 50% proliferation inhibitory concentration (IC50) was calculated.

[1] = Homo sapiens, HCT-116, 96 h, Table 1-1
[2] = Homo sapiens, HCT-116, 96 h, Table 1-2

IC50 [2] [nM] | Structure (SMILES) | IC50 [1] [nM] | further results
– | CNS(=O)(=O)Nc1cccc(Cc2c(C)c3ccc(OC(=O)N(C)C)cc3oc2=O)c1F [Compound 1j-1-4-2, Dimethylcarbamic acid 3-(3-methylaminosulfonylamino-2-fluorobenzyl)-4-methyl-2-oxo-2H-1-benzopyran-7-yl ester] | 9.3 | –
1.5 | CNS(=O)(=O)Nc1nccc(Cc2c(C)c3cc(C)c(Oc4nccs4)cc3oc2=O)c1F [Compound 1j-3-19-2, 3-{2-(Methylaminosulfonyl)amino-3-fluoropyridin-4-ylmethyl}-4-methyl-6-methyl-7-(thiazol-2-yloxy)-2-oxo-2H-1-benzopyran] | – | –
– | Cc1c(Cc2ccccc2)c(=O)oc2cc(OC(=O)N(C)C)c(Cl)cc12 [Comp. 2, dimethylcarbamic acid 2-oxo-2H-3-benzyl-4-methyl-6-chloro-1-benzopyran-7-yl ester, reference compound] | – | IC50 (Table 1-2): 1300 nM
– | CNS(=O)(=O)Nc1cccc(Cc2c(C)c3cc(C#N)c(OC(=O)N(C)C)cc3oc2=O)c1 [Compound 1j-1-9-2] | 24.2 | –
12.9 | CNS(=O)(=O)Nc1nccc(Cc2c(C)c3cc(C)c(Oc4nccs4)cc3oc2=O)c1Cl [Compound 1j-3-44-2, 3-{2-(Methylaminosulfonyl)amino-3-chloropyridin-4-ylmethyl}-4-methyl-6-methyl-7-(thiazol-2-yloxy)-2-oxo-2H-1-benzopyran] | – | –
8.4 | CCc1c(Cc2ccnc(NS(=O)(=O)NC)c2F)c(=O)oc2cc(Oc3ncccn3)c(C)cc12 [Compound 1j-2-19-2Me, 3-{2-(Methylaminosulfonyl)amino-3-fluoropyridin-4-ylmethyl}-4-ethyl-6-methyl-7-(pyrimidin-2-yloxy)-2-oxo-2H-1-benzopyran] | – | –
– | Cc1c(Cc2cccc(NS(=O)(=O)CC(=O)N(C)C)c2)c(=O)oc2cc(OC(=O)N(C)C)c(Cl)cc12 [Compound 1o-1-3-3, Dimethylcarbamic acid 3-(3-dimethylcarbamoylmethanesulfonylamino-benzyl)-6-chloro-4-methyl-2-oxo-2H-1-benzopyran-7-yl ester] | 16 | –
– | CNS(=O)(=O)Nc1cccc(Cc2c(CF)c3cc(Cl)c(OC(=O)N(C)C)cc3oc2=O)c1 [Compound 1j-1-3-2F, Dimethylcarbamic acid 6-chloro-4-fluoromethyl-3-{3-(methylaminosulfonyl)aminobenzyl}-2-oxo-2H-1-benzopyran-7-yl ester] | 19.5 | –
22.5 | Cc1c(Cc2cccc(NS(N)(=O)=O)c2F)c(=O)oc2cc(Oc3nccs3)ccc12 [Compound 1j-3-4-1, 3-{2-Fluoro-3-(aminosulfonyl)aminobenzyl}-4-methyl-7-(thiazol-2-yloxy)-2-oxo-2H-1-benzopyran] | – | –
– | CNC(=O)CS(=O)(=O)Nc1cccc(Cc2c(C)c3cc(Cl)c(OC(=O)N(C)C)cc3oc2=O)c1 [Compound 1o-1-3-2, Dimethylcarbamic acid 3-(3-methylcarbamoylmethanesulfonylamino-benzyl)-6-chloro-4-methyl-2-oxo-2H-1-benzopyran-7-yl ester] | 21 | –
8.9 | CNS(=O)(=O)Nc1cc(Cc2c(C)c3cc(C)c(Oc4nccs4)cc3oc2=O)ccn1 [Compound 1j-3-20-2, 3-{2-(Methylaminosulfonyl)aminopyridin-4-ylmethyl}-4-methyl-6-methyl-7-(thiazol-2-yloxy)-2-oxo-2H-1-benzopyran] | – | –
– | CNS(=O)(=O)Nc1cccc(Cc2c(C)c3cc(F)c(OC(=O)N(C)C)cc3oc2=O)c1F [Compound 1j-1-5-2, Dimethylcarbamic acid 6-fluoro-4-methyl-3-{2-fluoro-3-(methylaminosulfonyl)aminobenzyl}-2-oxo-2H-1-benzopyran-7-yl ester] | 2.9 | –
– | CNS(=O)(=O)Nc1cccc(Cc2c(C)c3cc(C)c(OC(=O)N(C)C)cc3oc2=O)c1 [Compound 1j-1-8-2, Dimethylcarbamic acid 6-methyl-4-methyl-3-{3-(methylaminosulfonyl)aminobenzyl}-2-oxo-2H-1-benzopyran-7-yl ester] | 21.7 | –
12.2 | CNS(=O)(=O)Nc1cc(Cc2c(C)c3cc(Cl)c(Oc4nccs4)cc3oc2=O)ccn1 [Compound 1j-3-12-2, 3-{2-(Methylaminosulfonyl)aminopyridin-4-ylmethyl}-4-methyl-6-chloro-7-(thiazol-2-yloxy)-2-oxo-2H-1-benzopyran] | – | –
– | Cc1c(Cc2cccc(NS(N)(=O)=O)c2)c(=O)oc2cc(OC(=O)N(C)C)c(I)cc12 [Compound 1j-1-7-1, Dimethylcarbamic acid 3-{3-(aminosulfonyl)aminobenzyl}-6-iodo-4-methyl-2-oxo-2H-1-benzopyran-7-yl ester] | 11.4 | –
– | Cc1c(Cc2cccc(NS(N)(=O)=O)c2F)c(=O)oc2cc(OC(=O)N(C)C)c(F)cc12 [Compound 1j-1-5-1, Dimethylcarbamic acid 3-{2-fluoro-3-(aminosulfonyl)aminobenzyl}-6-fluoro-4-methyl-2-oxo-2H-1-benzopyran-7-yl ester] | 8.3 | –
– | CNS(=O)(=O)Nc1cccc(Cc2c(CF)c3ccc(OC(=O)N(C)C)cc3oc2=O)c1F [Compound 1j-1-4-2F, Dimethylcarbamic acid 3-(3-methylaminosulfonylamino-2-fluorobenzyl)-4-fluoromethyl-2-oxo-2H-1-benzopyran-7-yl ester] | 10.6 | –
– | Cc1c(Cc2cccc(NS(N)(=O)=O)c2F)c(=O)oc2cc(OC(=O)N(C)C)ccc12 [Compound 1j-1-4-1, Dimethylcarbamic acid 3-(3-aminosulfonylamino-2-fluoro-benzyl)-4-methyl-2-oxo-2H-1-benzopyran-7-yl ester] | 17.6 | –
21.1 | CNS(=O)(=O)Nc1nccc(Cc2c(C)c3cc(F)c(Oc4ncccn4)cc3oc2=O)c1F [Compound 1j-2-17-2, 3-{2-(methylaminosulfonyl)amino-3-fluoropyridin-4-ylmethyl}-4-methyl-6-fluoro-7-(pyrimidin-2-yloxy)-2-oxo-2H-1-benzopyran] | – | –
5.9 | CNS(=O)(=O)Nc1nccc(Cc2c(C)c3cc(Cl)c(Oc4ncccn4)cc3oc2=O)c1F [Compound 1j-2-18-2, 3-{2-(Methylaminosulfonyl)amino-3-fluoropyridin-4-ylmethyl}-4-methyl-6-chloro-7-(pyrimidin-2-yloxy)-2-oxo-2H-1-benzopyran] | – | –
10.9 | CNS(=O)(=O)Nc1cccc(Cc2c(C)c3ccc(Oc4nccs4)cc3oc2=O)c1F [Compound 1j-3-4-2, 3-{2-Fluoro-3-(methylaminosulfonyl)aminobenzyl}-4-methyl-7-(thiazol-2-yloxy)-2-oxo-2H-1-benzopyran] | – | –
17.8 | CNS(=O)(=O)Nc1nccc(Cc2c(C)c3cc(C)c(Oc4ncccn4)cc3oc2=O)c1F [Compound 1j-2-19-2, 3-{2-(Methylaminosulfonyl)amino-3-fluoropyridin-4-ylmethyl}-4-methyl-6-methyl-7-(pyrimidin-2-yloxy)-2-oxo-2H-1-benzopyran] | – | –
– | CNS(=O)(=O)Nc1cccc(Cc2c(C)c3cc(I)c(OC(=O)N(C)C)cc3oc2=O)c1 [Compound 1j-1-7-2, Dimethylcarbamic acid 6-iodo-4-methyl-3-{3-(methylaminosulfonyl)aminobenzyl}-2-oxo-2H-1-benzopyran-7-yl ester] | 7.9 | –

Structure (SMILES) | IC50 [2] [nM] | IC50 [1] [nM] | further results
CNS(=O)(=O)Nc1cc(Cc2c(C)c3ccc(OC(=O)N(C)C)cc3oc2=O)ccn1 [Compound 1j-1-10-2, Dimethylcarbamic acid 4-methyl-3-{2-(methylaminosulfonyl)aminopyridin-4-ylmethyl}-2-oxo-2H-1-benzopyran-7-yl ester] | 31.9 | – | –
CNS(=O)(=O)Nc1cc(Cc2c(C)c3cc(F)c(OC(=O)N(C)C)cc3oc2=O)ccn1 [Compound 1j-1-11-2, Dimethylcarbamic acid 4-methyl-3-{2-(methylaminosulfonyl)aminopyridin-4-ylmethyl}-6-fluoro-2-oxo-2H-1-benzopyran-7-yl ester] | 18.3 | – | –
CNS(=O)(=O)Nc1cc(Cc2c(C)c3cc(Cl)c(OC(=O)N(C)C)cc3oc2=O)ccn1 [Compound 1j-1-12-2, Dimethylcarbamic acid 4-methyl-3-{2-(methylaminosulfonyl)aminopyridin-4-ylmethyl}-6-chloro-2-oxo-2H-1-benzopyran-7-yl ester] | 6.4 | – | –
